Patent US8143296B2, “Thiazole-based compound and inhibitor of T-type calcium channel containing the same” (Korea Institute of Science and Technology, priority 2006, dated 2012)
Structures can show the parent of a compound that is named as a salt.

Legend:
[1] = target: T1, α1G T-type calcium channel (Homo sapiens, UniProt O43497); assay: Assay for % inhibiting activity against T-type calcium channel using FDSS6000; format: cell-based; settings: HEK293 cells expressing α1G; for inhibition at 10 µM: HEK293, 10 μM
T1 construct: host or cells: HEK293
T1 sequence (O43497 whole entry): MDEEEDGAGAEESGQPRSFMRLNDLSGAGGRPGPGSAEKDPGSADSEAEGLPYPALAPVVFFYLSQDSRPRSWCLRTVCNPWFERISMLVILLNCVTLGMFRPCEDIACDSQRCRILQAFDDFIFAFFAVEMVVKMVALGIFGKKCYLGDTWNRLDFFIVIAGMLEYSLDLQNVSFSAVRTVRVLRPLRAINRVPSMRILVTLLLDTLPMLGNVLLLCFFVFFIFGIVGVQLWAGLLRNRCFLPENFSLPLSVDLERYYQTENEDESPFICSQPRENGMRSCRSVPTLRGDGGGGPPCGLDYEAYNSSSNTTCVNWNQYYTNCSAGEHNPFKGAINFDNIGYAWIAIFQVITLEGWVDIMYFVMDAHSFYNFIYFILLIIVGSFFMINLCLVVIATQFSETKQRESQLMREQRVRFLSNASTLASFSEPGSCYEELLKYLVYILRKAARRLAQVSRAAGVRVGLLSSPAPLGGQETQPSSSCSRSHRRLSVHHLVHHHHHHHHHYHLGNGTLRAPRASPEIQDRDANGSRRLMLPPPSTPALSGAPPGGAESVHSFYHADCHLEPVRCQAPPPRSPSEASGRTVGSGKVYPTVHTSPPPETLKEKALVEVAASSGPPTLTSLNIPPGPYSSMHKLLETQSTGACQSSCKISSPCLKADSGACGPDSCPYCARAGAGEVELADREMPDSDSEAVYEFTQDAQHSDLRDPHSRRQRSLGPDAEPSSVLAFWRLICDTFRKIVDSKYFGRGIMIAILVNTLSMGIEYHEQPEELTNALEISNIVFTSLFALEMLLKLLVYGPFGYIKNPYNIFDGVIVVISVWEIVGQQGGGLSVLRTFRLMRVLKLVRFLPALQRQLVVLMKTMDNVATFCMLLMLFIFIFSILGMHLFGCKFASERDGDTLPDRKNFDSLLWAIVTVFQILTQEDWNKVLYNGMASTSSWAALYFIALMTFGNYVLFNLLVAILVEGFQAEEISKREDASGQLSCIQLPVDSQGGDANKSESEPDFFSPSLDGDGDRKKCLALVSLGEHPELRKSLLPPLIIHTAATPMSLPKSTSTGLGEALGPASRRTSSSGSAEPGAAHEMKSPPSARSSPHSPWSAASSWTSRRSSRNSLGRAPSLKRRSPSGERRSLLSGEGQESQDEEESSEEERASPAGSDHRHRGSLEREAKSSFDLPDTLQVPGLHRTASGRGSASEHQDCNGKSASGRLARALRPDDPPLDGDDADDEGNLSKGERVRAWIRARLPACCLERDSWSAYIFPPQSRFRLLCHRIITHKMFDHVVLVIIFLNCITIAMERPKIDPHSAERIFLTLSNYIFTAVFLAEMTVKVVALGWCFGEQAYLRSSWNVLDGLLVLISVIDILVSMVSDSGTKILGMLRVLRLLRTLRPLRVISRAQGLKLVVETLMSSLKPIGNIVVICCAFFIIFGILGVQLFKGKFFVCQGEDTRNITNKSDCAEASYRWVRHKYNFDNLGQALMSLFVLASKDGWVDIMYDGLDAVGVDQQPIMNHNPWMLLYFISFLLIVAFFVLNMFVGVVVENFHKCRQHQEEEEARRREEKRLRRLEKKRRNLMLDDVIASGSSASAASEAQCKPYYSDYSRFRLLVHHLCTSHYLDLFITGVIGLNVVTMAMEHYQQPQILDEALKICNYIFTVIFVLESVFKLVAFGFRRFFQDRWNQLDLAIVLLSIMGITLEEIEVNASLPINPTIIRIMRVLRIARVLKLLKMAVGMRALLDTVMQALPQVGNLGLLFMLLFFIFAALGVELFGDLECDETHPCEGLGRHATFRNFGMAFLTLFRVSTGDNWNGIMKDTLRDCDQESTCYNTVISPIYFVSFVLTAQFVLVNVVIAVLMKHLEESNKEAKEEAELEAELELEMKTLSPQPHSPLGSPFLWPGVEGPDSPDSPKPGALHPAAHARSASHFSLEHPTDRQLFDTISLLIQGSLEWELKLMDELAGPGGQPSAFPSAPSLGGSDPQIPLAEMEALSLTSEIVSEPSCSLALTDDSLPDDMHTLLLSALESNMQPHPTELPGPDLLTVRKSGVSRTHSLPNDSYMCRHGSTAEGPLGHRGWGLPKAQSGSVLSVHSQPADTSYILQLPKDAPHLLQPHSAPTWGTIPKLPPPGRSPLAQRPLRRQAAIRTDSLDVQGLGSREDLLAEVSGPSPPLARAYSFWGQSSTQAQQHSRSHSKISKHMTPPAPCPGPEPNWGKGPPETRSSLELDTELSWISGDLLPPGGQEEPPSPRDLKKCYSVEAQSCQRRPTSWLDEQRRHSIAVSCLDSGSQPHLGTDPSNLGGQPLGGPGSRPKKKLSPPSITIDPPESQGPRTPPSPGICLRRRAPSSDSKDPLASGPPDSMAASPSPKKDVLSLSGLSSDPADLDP
Experimental: In the present invention, in order to search an efficient inhibitor against T-type calcium channel, a primary assay for T-type calcium channel inhibiting activity was conducted by a high-efficient assay using FDSS6000, wherein mammal HEK293 cell lines (originated from human kidney carcinoma cells) which specifically expresses α1G of T-type calcium channel was used for primary assay. Through the primary assay, compounds which show meaningful inhibition effects were selected. The selected compounds were used in a second assay for T-type calcium channel inhibiting activity using electrophysiological whole cell patch clamp method, wherein mammal HEK293 cell lines (originated from human kidney carcinoma cells) which specifically expresses α1G of T-type calcium channel was used for the second assay.
At 12-24 hours before being used for this assay, cells of HEK293 cell line (α1G cell line: KCTC 10519BP, Korean Collection for Type Cultures), which stably express α1G T-type calcium channel and Kir2.1, were sub-cultured in a poly-L-lysine treated 96-well plate with the density of 4×10^4 per a well using a 96-well cell dispenser (Titertek). On the of assay, the 96-well plate to which the cells were attached were washed three times with HEPES buffer solution (150 mM of NaCl, 5 mM of KCl, 1 mM of MgCl2, 2 mM of CaCl2, 10 mM of HEPES, 10 mM of glucose; pH 7.4) using a 96-well plate automatic washing device (Bio Tek), then reacted with HEPES buffer solution containing 5 μM fluo-3/AM and 0.001% Pluronic F-127 under room temperature for 1 hour, to label with fluorescent dye, and then further washed two times with HEPES buffer solution.
Thereafter, at 10 minutes before the measurement using device FDSS6000, a washing with HEPES buffer solution containing 10 mM CaCl2 was conducted once more, and the final volume was adjusted to 81 μl. Besides the above 96-well plate containing the cells, additional two drug 96-well plates were provided, wherein the 96-well plates contain inhibiting drug and KCl (final concentration: 75 mM) for activating T-type calcium channel, respectively. Since most of cell-based HTS devices are equipped with a liquid application system for injection of drug, but have no liquid sucking system, the inhibiting drug to be tested and KCl were respectively provided at the five-times higher concentration in 10 mM CaCl2 HEPES buffer solution at the amount of 27 μl, diluted five-times at the final cell plate volume of 135 μl, and then used in this test. The concrete method of measurement using FDSS6000 was as follows: After recording the reference value of 20 seconds, the change of intracellular Ca^2+ concentration which induced by treatment of the inhibiting drug to be tested for 75 seconds followed by administration of KCl was measured, wherein the percentage (%) inhibition effect of the test drug, through estimating the area of ratio value of 340/380 in the control without treatment of the test drug as 100%. As a reference drug, mibefradil was used.
For accurate calcium-imagination, the light source of 4 xenon lamps in FDSS6000 were radiated to make the cells exposed selectively to the excitation wavelength (340 nm and 380 nm) by computer-controlled filter wheel. Data was obtained at interval of each 1.23 second. The emitter fluorescence light inflowed through long-pass filter was obtained as an average 340/380 ratio value for each well in the 96-wells by using CCD camera and digital fluorescence analyzer in FDSS6000. All image data and analyses were obtained by using FDSS6000-exclusive program provide from Hamamatsu Photonics.

[2] = Table 4 (Chemical Formula 3 series)
[3] = Table 3 (Chemical Formula 2 series)

SMILES | inhibition at 10 µM [1, 2] | melting point | % Inhibition [α1G, 10 μM) using FDSS6000 ([1]; 10 μM, Table 3 (Chemical Formula 2 series), hydrochloride) | inhibition at 10 µM [1, 3]
COc1ccc(NC(=O)Cc2csc(N=C(N)N)n2)cc1F.Cl [KHG23179, 2-(2-(diaminomethyleneamino)thiazole-4-yl)-N-(3-fluoro-4-methoxyphenyl)acetamide hydrochloride] |  | 225.8 to 228.4 °C | 30.76% | 
Cl.NC(N)=Nc1nc(CC(=O)Nc2ccc(Br)cc2)cs1 [KHG23178, N-(4-bromophenyl)-2-(2-(diaminomethyleneamino)thiazole-4-yl)acetamide hydrochloride] |  | 246.4 to 247 °C |  | 34.5%
Cl.NC(N)=Nc1nc(CC(=O)Nc2cc(Cl)cc(Cl)c2)cs1 [KHG23185, 2-(2-(diaminomethyleneamino)thiazole-4-yl)-N-(3,5-dichlorophenyl)acetamide hydrochloride] |  | 248.5 to 249.2 °C |  | 12.3%
Cc1ccc(CNC(=O)Cc2csc(N=C(N)N)n2)cc1.Cl [KHG23187, 2-(2-(diaminomethyleneamino)thiazole-4-yl)-N-(4-methylbenzyl)acetamide hydrochloride] |  | 187.9 to 188.6 °C |  | 21.4%
CCc1ccc(NC(=O)Cc2csc(N=C(N)N)n2)cc1.Cl [KHG23186, 2-(2-(diaminomethyleneamino)thiazole-4-yl)-N-(4-ethylphenyl)acetamide hydrochloride] |  | 228 to 229.1 °C |  | 29.8%
Cl.NC(N)=Nc1nc(CC(=O)Nc2ccc(Cl)cc2)cs1 [KHG23184, N-(4-chlorophenyl)-2-(2-(diaminomethyleneamino)thiazole-4-yl)acetamide hydrochloride] |  | 244.3 to 245 °C |  | 24.9%
Cl.NC(N)=Nc1nc(CC(=O)Nc2ccccc2)cs1 [KHG23177, 2-(2-(diaminomethyleneamino)thiazole-4-yl)-N-phenylacetamide hydrochloride] |  | 197.8 to 198.1 °C |  | 23.3%
Cc1ccc(NC(=O)Cc2csc(N=C(N)N)n2)cc1.Cl [KHG23175, 2-(2-(diaminomethyleneamino)thiazole-4-yl)-N-p-tolylacetamide hydrochloride] |  | 236.2 to 238.3 °C |  | 23.8%
Cl.NC(N)=Nc1nc(CC(=O)Nc2ccc(Cl)cc2F)cs1 [KHG23173, N-(4-chloro-2-fluorophenyl)-2-(2-(diaminomethyleneamino)thiazole-4-yl)acetamide hydrochloride] |  | 237.2 to 239.8 °C |  | 28.1%
CCCCCCc1ccc(NC(=O)Cc2csc(N=C(N)N)n2)cc1 [KHG23383, 2-(2-(diaminomethyleneamino)thiazole-4-yl)-N-(4-hexylphenyl)acetamide hydrochloride] |  |  |  | 5.7%
CCCCCCCCCCc1ccc(NC(=O)Cc2csc(N=C(N)N)n2)cc1 [KHG23381, N-(4-decylphenyl)-2-(2-(diaminomethyleneamino)thiazole-4-yl)acetamide hydrochloride] |  |  |  | 6.2%
NC(N)=Nc1nc(CC(=O)Nc2ccc([N+](=O)[O-])cc2)cs1 [KHG23380, 2-(2-(diaminomethyleneamino)thiazole-4-yl)-N-(4-nitrophenyl)acetamide hydrochloride] |  |  |  | 11.4%
CCCCOc1ccc(NC(=O)Cc2csc(N=C(N)N)n2)cc1 [KHG23384, N-(4-butoxyphenyl)-2-(2-(diaminomethyleneamino)thiazole-4-yl)acetamide hydrochloride] |  |  |  | 6.1%
Cc1nc(N=C(N)N)sc1Cc1ccc(F)cc1.Cl |  | 245.6 °C |  | 
NC(N)=Nc1nc(-c2ccc3[nH]c(=O)oc3c2)cs1 [KHG24022, 2-(4-(2-oxo-2,3-dihydrobenzo[d]oxazole-6-yl)thiazole-2-yl)guanidine hydrochloride] | 10.1% |  |  | 
NC(N)=Nc1nc(CC(=O)NCCc2ccc(F)cc2)cs1 [KHG23190, 2-(2-(diaminomethyleneamino)thiazole-4-yl)-N-(4-fluorophenethyl)acetamide hydrochloride] |  |  |  | 21%
NC(N)=Nc1nc(CC(=O)Nc2ccc(F)c(F)c2F)cs1 [KHG23392, 2-(2-(diaminomethyleneamino)thiazole-4-yl)-N-(2,3,4-trifluorophenyl)acetamide hydrochloride] |  |  |  | 22.7%
NC(N)=Nc1nc(CC(=O)Nc2cc(C(F)(F)F)cc(C(F)(F)F)c2)cs1 [KHG23394, N-(3,5-bis(trifluoromethyl)phenyl)-2-(2-(diaminomethyleneamino)thiazole-4-yl)acetamide hydrochloride] |  |  |  | 41.5%
NC(N)=Nc1nc(CC(=O)Nc2ccc(Oc3ccccc3)cc2)cs1 [KHG23389, 2-(2-(diaminomethyleneamino)thiazole-4-yl)-N-(4-phenoxyphenyl)acetamide hydrochloride] |  |  |  | 25.4%

Second part, the compound after the results:

inhibition at 10 µM [1, 2] | melting point | % Inhibition [α1G, 10 μM) using FDSS6000 ([1]; 10 μM, Table 3 (Chemical Formula 2 series), hydrochloride) | inhibition at 10 µM [1, 3] | SMILES
19.9% | 223.3 °C |  |  | Cl.NC(N)=Nc1nc(-c2ccc(F)cc2)cs1 [KHG24025, 2-(4-(4-fluorophenyl)thiazole-2-yl)guanidine hydrochloride]
19.8% | 248.9 °C |  |  | Cl.NC(N)=Nc1nc(-c2ccc(F)cc2F)cs1 [KHG24026, 2-(4-(2,4-difluorophenyl)thiazole-2-yl)guanidine hydrochloride]
7.32% | 256.3 °C |  |  | Br.NC(N)=Nc1nc(-c2ccc(Cl)c(Cl)c2)cs1 [KHG24390, 2-(4-(3,4-dichlorophenyl)thiazole-2-yl)guanidine hydrobromide]
16.1% | 213 °C |  |  | Br.COc1ccc(-c2csc(N=C(N)N)n2)c(OC)c1 [KHG24376, 2-(4-(2,4-dimethoxyphenyl)thiazole-2-yl)guanidine hydrobromide]
16.8% | 173 °C |  |  | Br.NC(N)=Nc1nc(-c2ccc(Cl)cc2Cl)cs1 [KHG24379, 2-(4-(2,4-dichlorophenyl)thiazole-2-yl)guanidine hydrobromide]
10.9% | 179.8 °C |  |  | Br.NC(N)=Nc1nc(-c2cccc(Br)c2)cs1 [KHG24386, 2-(4-(3-bromophenyl)thiazole-2-yl)guanidine hydrobromide]
20.2% | 202.6 °C |  |  | Br.COc1ccc(-c2csc(N=C(N)N)n2)c(F)c1 [KHG24377, 2-(4-(2-fluoro-4-methoxyphenyl)thiazole-2-yl)guanidine hydrobromide]
20.8% | 278.5 °C |  |  | Br.NC(N)=Nc1nc(-c2ccc(Br)cc2)cs1 [KHG24381, 2-(4-(4-bromophenyl)thiazole-2-yl)guanidine hydrobromide]
15.8% | 224.8 °C |  |  | Br.NC(N)=Nc1nc(-c2cccc(C(F)(F)F)c2)cs1 [KHG24385, 2-(4-(3-(trifluoromethyl)phenyl)thiazole-2-yl)guanidine hydrobromide]
20.7% | 245.4 °C |  |  | Br.COc1ccccc1-c1csc(N=C(N)N)n1 [KHG24374, 2-(4-(2-methoxyphenyl)thiazole-2-yl)guanidine hydrobromide]
20.3% | 229.6 °C |  |  | Br.NC(N)=Nc1nc(-c2ccccc2F)cs1 [KHG24384, 2-(4-(2-fluorophenyl)thiazole-2-yl)guanidine hydrobromide]
13.3% |  |  |  | COc1ccc(-c2csc(N=C(N)N)n2)cc1 [KHG24041, 2-(4-(4-methoxyphenyl)thiazole-2-yl)guanidine hydrobromide]
